The nature of the series: Evaluation of solubility of acid generators in resist solvents (concentration at which completely dissolved). Type of series: physicochemical. The settings on record: for Solubility in EL (% by weight): ethyl lactate; for Solubility in PGMEA (% by weight): propylene glycol monomethyl ether acetate; for Solubility in PGME (% by weight): propylene glycol monomethyl ether. As for the experimental part:
With respect to each of the compounds, propylene glycol monomethyl ether acetate (PGMEA) solutions, propylene glycol monomethyl ether (PGME) solutions and ethyl lactate (EL) solutions of various concentrations were prepared. The prepared solutions were stirred to evaluate the concentration at which the acid generator was completely dissolved.

Setting [1] is: Table 1, concentration at which completely dissolved.

As to `c1ccc([S+](c2cccc3ccccc23)c2cccc3ccccc23)cc1` [(b′-01), di(1-naphthyl)phenylsulfonium nonafluorobutane sulfonate], under “Table 1”, the “Solubility in EL (% by weight)” value is listed as 5 % by weight and the “Solubility in PGMEA (% by weight)” value amounted to 5 % by weight. Also, the “Solubility in PGME (% by weight)” value under setting [1] was <2 % by weight.
Take `c1ccc(-[s+]2c3ccccc3c3ccccc32)cc1` [(2)]: where the note is “Table 8”, the “Solubility in EL (% by weight)” value turned out to be 20.0 % by weight, the “Solubility in PGME (% by weight)” value was 20.0 % by weight and the “Solubility in PGMEA (% by weight)” value was 10~15 % by weight.
On to `c1ccc(-[s+]2c3ccccc3c3ccccc32)cc1` [(b1-01), phenyldibenzothiophenium nonafluorobutane sulfonate], for which, for the setting “Table 1”, the “Solubility in EL (% by weight)” value was 20 % by weight and the “Solubility in PGMEA (% by weight)” value is 20 % by weight. In addition, the “Solubility in PGME (% by weight)” value under setting [1] is listed as 10-15 % by weight.
For `c1ccc([S+](c2cccc3ccccc23)c2cccc3ccccc23)cc1` [(1)], for the setting “Table 8”, the “Solubility in EL (% by weight)” value is recorded as 5.0 % by weight, the “Solubility in PGME (% by weight)” value came out at 5.0 % by weight and the “Solubility in PGMEA (% by weight)” value is recorded as <2.0 % by weight.
With `Cc1cc(-[s+]2c3ccccc3c3ccccc32)cc(C)c1OCOC1CCCCC1` [b1-100], where the note is “Table 8”, the “Solubility in EL (% by weight)” value was >30 % by weight, the “Solubility in PGME (% by weight)” value was >30 % by weight and the “Solubility in PGMEA (% by weight)” value was >30 % by weight.
With `Cc1cc(-[s+]2c3ccccc3c3ccccc32)cc(C)c1O` [Compound (b1-51)], the “Solubility in EL (% by weight)” value (Table 1) is recorded as 10-15 % by weight. Also, for the setting “Table 1”, the “Solubility in PGMEA (% by weight)” value is listed as 10-15 % by weight. The “Solubility in PGME (% by weight)” value reads like this: under setting [1], <2 % by weight; (Table 8) 10~15 % by weight.
As for `Cc1cc(-[s+]2c3ccccc3c3ccccc32)cc(C)c1OC(=O)OC(C)(C)C` [Compound (b1-81)], under “Table 1”, the “Solubility in EL (% by weight)” value is listed as 20 % by weight and the “Solubility in PGMEA (% by weight)” value is recorded as 20 % by weight. Under setting [1], the “Solubility in PGME (% by weight)” value was found to be 10 % by weight.

These data come from patent US7488568B2, “Resist composition, method of forming resist pattern, compound and acid generator” (Tokyo Ohka Kogyo Co., Ltd., priority 2008, dated 2009).
